SMILES strings stand for the structures.

These results are taken from article PMC10916551, “NNMT/1‐MNA Promote Cell‐Cycle Progression of Breast Cancer by Targeting UBC12/Cullin‐1‐Mediated Degradation of P27 Proteins” (Advanced Science, 2023).

This assay concerns the target T1, UBC12 (Homo sapiens, UniProt P61081).
T1 construct: gene UBE2M; amine-coupled to CM5 chip
T1 sequence (P61081 1-183): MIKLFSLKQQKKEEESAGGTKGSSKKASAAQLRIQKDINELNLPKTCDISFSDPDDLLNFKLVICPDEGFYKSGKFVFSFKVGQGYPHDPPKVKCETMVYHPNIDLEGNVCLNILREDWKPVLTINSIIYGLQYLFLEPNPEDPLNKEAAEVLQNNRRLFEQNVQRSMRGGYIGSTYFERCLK
Kind of assay: SPR (Biacore T200), UBC12 immobilised on CM5 chip. The class given is binding.

For `C[n+]1cccc(C(N)=O)c1` [1-MNA], the affinity, expressed as Kd, was 168 nM.
